Measurements taken from patent EP0275998A2, “Pharmaceutical preparation for treatment of hyperacidity in body fluids” (priority 1987, dated 1988).

What was measured:
[1] = format: in vivo, cats
Method: In vivo use of preparations of the invention as antiacidotic agents. […] The recovery of the pH to the normal value follows roughly an exponential course with a time constant of 1-3 minutes. […] Results are given in the appended Figure II.

[2] = Titration of rat gastric juice with antacid solutions; format: physicochemical; conditions: aqueous solutions: sodium bicarbonate 150 mM, NMG 150 mM, NMGP 20 mg/cc
Description: Results are given in the appended Figure III.

[3] = Plasma concentration of various components after i.v. administration of NMG; format: in vivo; conditions: cat

With `CNC[C@H](O)[C@@H](O)[C@H](O)[C@H](O)CO` [NMG, 1-deoxy-1-(methylamino)-D-glucitol] as the compound, how does the “urine pH” value ([1]; artificially ventilated cats, 1cc/Kg of 300 mM) read?
Its value is “Parallel increase”.

And the “partial pressure of CO₂ (P CO2)” value ([1]; artificially ventilated cats, 1cc/Kg of 300 mM isotonic solution)?
The value was “clear decrease”.

What about the “time constant of recovery of the pH to the normal value” ([1]; artificially ventilated cats, 1cc/Kg of 300 mM, roughly exponential course) of the same compound?
Its value is 1-3 minutes.

What about the “blood pH” value ([1]; artificially ventilated cats, rapid (about 15 sec.) administration of 1cc/Kg of 300 mM isotonic solution, immediate elevation from about 7.4) of the same compound?
The value was ~7.9.

And the effect on respiration ([1]; in vivo)?
The effect on respiration was “no significant effect”.

And the “effects in the vein through which the solution was administered” value ([1]; in vivo, iv)?
The value was “No gross deleterious effects”.

What about the “antacid potency in titration of gastric juice” value [2] of the same compound?
Its value is “more potent than sodium bicarbonate”.

And the “Plasma concentration Potassium” value ([3]; 1 min. after i.v. NMG 0.3 mmol/kg (before: 4.2))?
The value was 4200 µM.

What about the “Plasma concentration Urea” value ([3]; 1 min. after i.v. NMG 0.3 mmol/kg (before: 7)) of the same compound?
The value was 6900 µM.

And the “Plasma concentration Chloride” value ([3]; 1 min. after i.v. NMG 0.3 mmol/kg (before: 113))?
The value was 112000 µM.

What about the “Plasma concentration Sodium” value ([3]; 1 min. after i.v. NMG 0.3 mmol/kg (before: 142)) of the same compound?
Its value is 145000 µM.

What about the “Plasma concentration Potassium” value ([3]; 30 min. after i.v. NMG 0.3 mmol/kg (before: 4.2)) of the same compound?
Its value is 4200 µM.

And the “Plasma concentration Urea” value ([3]; 30 min. after i.v. NMG 0.3 mmol/kg (before: 7))?
Its value is 6800 µM.

And the “Plasma concentration Chloride” value ([3]; 30 min. after i.v. NMG 0.3 mmol/kg (before: 113))?
Its value is 113000 µM.

What about the “Plasma concentration Sodium” value ([3]; 30 min. after i.v. NMG 0.3 mmol/kg (before: 142)) of the same compound?
The value was 144000 µM.

And the “Plasma concentration Potassium” value ([3]; 120 min. after i.v. NMG 0.3 mmol/kg (before: 4.2))?
Its value is 4200 µM.

And the “Plasma concentration Urea” value ([3]; 120 min. after i.v. NMG 0.3 mmol/kg (before: 7))?
Its value is 6600 µM.

And the “Plasma concentration Chloride” value ([3]; 120 min. after i.v. NMG 0.3 mmol/kg (before: 113))?
The value was 116000 µM.

And the “Plasma concentration Sodium” value ([3]; 120 min. after i.v. NMG 0.3 mmol/kg (before: 142))?
The value was 147000 µM.
